Laboratory results as given in US4175125A, “Method for treating methicillin resistant staphylococcus aureus” (Eli Lilly and Company, priority 1978, dated 1979).
≈ marks a conversion by molar mass, not a printed value. Where a name gives a salt, the structure may show the parent alone. Read-outs that look alike come from different tables or passages of the source.

Tested on: methicillin-resistant Staphylococcus aureus
Experiment: Gradient plate test (MIC) against methicillin-resistant Staphylococcus aureus
Type: cell-based
Details: for MIC: Staphylococcus aureus
Experimental: The method used is essentially that described by Bryson and Szybalski in 1952 (Science 116:45-46). The inoculum treatment method used for penicillin resistant Staphylococci was reported by Godzeski et al in Antimicrobial Agents and Chemotherapy, May, 1969, pp. 547-554.
A standard Falcon square plastic petri dish is used. A layer of agar (10 ml.) is poured into one of the square dishes, the dish tipped 5 mm. off the horizontal, and the agar layer allowed to harden in this position. This bottom layer of agar contains the antibiotic, the serum, and/or other material to be tested. The medium is Difco Penassay Agar containing 2 percent agar. We routinely used 4 ml. of human or horse serum for "serum-inactivation" testing. […] Therefore, serum is routinely added only to the bottom layer.
After the bottom, slanted layer of agar medium has hardened, the plate is placed flat and another 10 ml. of medium added and allowed to harden.
The inoculum of resistant Staphylococci, as described, is prepared by diluting the water suspension 1/50 in 0.25 percent agar in sterile water or saline. For Gram negative organisms, an overnight broth culture is diluted 1/50 in the 0.25 percent agar-water. This dilution is thoroughly shaken to evenly suspend the bacteria. To streak the plate, we use a 1 ml. pipet containing an aliquot of the final […] agar dilution. After a little practice, a smooth even stroke of inoculum can be laid down very rapidly. The trick is in the smoothness of the streak--it must be accomplished uniformly and quickly.
After 24 hours incubation at 35°-37° C. the plates are read by simply measuring the length of bacterial growth as a percentage of the entire streak distance which is then converted to the percent of antibiotic concentration in the plate.
Average values of duplicate measurements are calculated and the M.I.C.'s reported are average of 2 streaks on the plate and from 2 to 3 duplicate plates. Eight streaks can be easily placed on each plate. If sharp end points are not obtained, the middle concentration between the beginning of inhibition of the streak to the end of growth is measured. The concentration of the antibiotic under examination is varied from plate to plate in a series as follows: […]
This method of screening penicillins and cephalosporins is quite satisfactory. Control plates containing penicillin and staphcillin or prostaphlin, or other control antibiotic, are used daily for the resistant staphylococcal activity screen. The gradient plate method has shown differences between antibiotics that were not apparent by any other methods of screening. […] We believe that the gradient plate screen is more sensitive to small differences between related antibiotics than other methods and pictures of the plates can provide a permanent record. The method also lends itself readily to modification of specific purposes--e.g., cross gradients.
The compounds listed below are examples of compounds useful in the method of this invention. After the compound name there is given in parentheses, where tested, the minimum inhibitory concentrations (MIC) in micrograms per milliliter (μg/ml) for the compound in the above described gradient plate procedure test against methicillin-resistant Staphylococcus aureus, (in the absence of blood serum/in the presence of 20 percent blood serum).
and pharmaceutically acceptable salts thereof. The abbreviation "s.z." means skip zones.

[1] = in the absence of blood serum, read-out: minimum inhibitory concentration (MIC)
[2] = in the presence of 20 percent blood serum
[3] = in the presence of 20 percent blood serum, read-out: minimum inhibitory concentration (MIC)

SMILES | MIC [1] [µg/mL] | minimum inhibitory concentration (MIC) [2] | MIC [3] [µg/mL] | MIC (read-out: minimum inhibitory concentration (MIC), in the absence of blood serum) [µg/mL] | MIC (read-out: minimum inhibitory concentration (MIC), in the presence of 20 percent blood serum) [µg/mL]
Cn1nnnc1SCC1=C(C(=O)O)N2C(=O)C(NC(=O)CSc3cc(Cl)ccc3Cl)C2SC1 (centres unmarked) [3-(1'-methyl-1'H-tetrazol-5'-ylthiomethyl)-7-[2'-(2",5"-dichlorophenylthio)acetamido]-3-cephem-4-carboxylic acid, dicyclohexylamine salt] | 2.3 | skip zones | – | – | –
Cn1nnnc1SCC1=C(C(=O)O)N2C(=O)C(NC(=O)CSc3cc(F)c(Cl)cc3Cl)C2SC1 (centres unmarked) [3-(1'-methyl-1'H-tetrazol-5'-ylthiomethyl)-7-[2'-[2",4"-dichloro-5"-fluorophenylthio)acetamido]-3-cephem-4-carboxylic acid, dicyclohexylamine salt] | 1.9 | – | > 20 | – | –
Cc1nnc(SCC2=C(C(=O)O)N3C(=O)C(NC(=O)CSc4cc(F)c(Cl)cc4Cl)C3SC2)s1 (centres unmarked) [3-(5'-methyl-1',3',4'-thiadiazol-2'-ylthiomethyl)-7-[2'-(2",4"-dichloro-5"- fluorophenylthio)acetamido]-3-cephem-4-carboxylic acid, sodium salt] | 2.3 | – | > 20 | – | –
Cc1nnc(SCC2=C(C(=O)O)N3C(=O)C(NC(=O)CSc4cc(Cl)ccc4Cl)C3SC2)s1 (centres unmarked) [3-(5'-methyl-1',3',4'-thiadiazol-2'-ylthiomethyl)-7-[2'-(2",5"-dichlorophenylthio)acetamido]-3-cephem-4-carboxylic acid, sodium salt] | 1.8 | – | > 1 | – | –
Cc1nnc(SCC2=C(C(=O)O)N3C(=O)C(NC(=O)CSc4ccc(Cl)c(Cl)c4)C3SC2)s1 (centres unmarked) [3-(5'-methyl-1',3',4'-thiadiazol-2'-ylthiomethyl)-7-[2'-(3",4"-dichlorophenylthio)acetamido]-3-cephem-4-carboxylic acid, dicyclohexylamine salt] | 1.2 | – | > 20 | – | –
Cn1nnnc1SCC1=C(C(=O)O)N2C(=O)C(NC(=O)CSc3cc(Cl)cc(Cl)c3)C2SC1 (centres unmarked) [3-[1'-methyl-1'H-tetrazol-5'-ylthiomethyl]-7-[2'-(3",5"-dichlorophenylthio)acetamido]-3-cephem-4-carboxylic acid, dicyclohexylamine salt] | 2.2 | skip zones | – | – | –
CSCC1=C(C(=O)[O-])N2C(=O)C(NC(=O)CSc3cc(Cl)ccc3Cl)[C@H]2SC1.[Na+] (some centres unmarked) [3-methylthiomethyl-7-[2'-(2",5"-dichlorophenylthio)acetamido]-3-cephem-4-carboxylic acid, sodium salt] | – | – | – | 12 | 14.4
CC(=O)OCC1=C(C(=O)O)N2C(=O)C(NC(=O)CSc3cc(F)c(Cl)cc3Cl)C2SC1 (centres unmarked) [Example 4, 7(2,4-Dichloro-5-fluoro-phenylthioacetamido)cephalosporanic acid] | 3 (≈ 5.89 µM) | – | > 20 | – | –
Cn1nnnc1SCC1=C(C(=O)O)N2C(=O)C(NC(=O)CSc3ccc(Cl)c(Cl)c3)[C@H]2SC1 (some centres unmarked) [Example 5, 7-[2-(3,4-dichlorophenylthio)acetamido]-3-(1-methyltetrazol-5-yl-thiomethyl)-3-cephem-4-carboxylic acid] | 2.4 (≈ 4.38 µM) | – | > 20 | – | –

Further compounds by falling MIC [1], results first:

MIC [1] [µg/mL] | minimum inhibitory concentration (MIC) [2] | MIC [3] [µg/mL] | SMILES | MIC (read-out: minimum inhibitory concentration (MIC), in the absence of blood serum) [µg/mL] | MIC (read-out: minimum inhibitory concentration (MIC), in the presence of 20 percent blood serum) [µg/mL]
10.6 (≈ 24.1 µM) | – | 9.3 | CC(=O)OCC1=C(C(=O)O)N2C(=O)C(NC(=O)CSc3cccc(F)c3)C2SC1 (centres unmarked) [7-[2'-(3"-fluorophenylthio)acetamido]cephalosporanic acid] | – | –
6.8 (≈ 12.7 µM) | – | > 1 | O=C(CSc1cc(Cl)ccc1Cl)NC1C(=O)N2C(C(=O)O)=C(CSc3nn[nH]n3)CSC12 (centres unmarked) [3-(1'H-tetrazol-5'-ylthiomethyl)-7-[2'-(2",5"-dichlorophenylthio)acetamido]-3-cephem-4-carboxylic acid] | – | –
5.5 (≈ 10.9 µM) | – | 18.2 | CNC(=O)OCC1=C(C(=O)O)N2C(=O)C(NC(=O)CSc3cc(Cl)ccc3Cl)C2SC1 (centres unmarked) [Example 7, 7(2,5-dichlorophenylmercaptoacetamido)-3-(N-methylcarbamoyloxymethyl)-Δ^3-cephalosphoranic acid] | – | –
4.5 | – | > 20 | Cc1nnc(SCC2=C(C(=O)O)N3C(=O)C(NC(=O)CSc4cc(Cl)cc(Cl)c4)C3SC2)s1 (centres unmarked) [3-(5'-methyl-1',3',4'-thiadiazol-2'-ylthiomethyl)-7-[2'-(3",5"-dichlorophenylthio)acetamido]-3-cephem-4-carboxylic acid, sodium salt] | – | –
4.4 | – | – | COc1ccc(-c2nnc(SCC3=C(C(=O)O)N4C(=O)C(NC(=O)CSc5cc(Cl)ccc5Cl)C4SC3)o2)cc1 (centres unmarked) [3-[5'-(p-methoxyphenyl)-1',3',4'-oxadiazol-5'-ylthiomethyl]-7-[2'-(2",5"-dichlorophenylthio)acetamido]-3-cephem-4-carboxylic acid, sodium salt] | – | –
4.1 (≈ 8.33 µM) | – | 1.7 | NC(=O)OCC1=C(C(=O)O)N2C(=O)C(NC(=O)CSc3cc(Cl)ccc3Cl)[C@H]2SC1 (some centres unmarked) [3-carbamyloxymethyl-7-[2'-(2",5"-dichlorophenylthio)acetamido]-3-cephem-4-carboxylic acid] | – | –
3.9 | – | > 20 | O=C(CSc1cc(Cl)ccc1Cl)NC1C(=O)N2C(C(=O)O)=C(CSc3nnc(-c4ccc([N+](=O)[O-])cc4)o3)CSC12 (centres unmarked) [3-[5'-(p-nitrophenyl)-1',3',4'-oxadiazol-2'-ylthiomethyl]-7-[2'-(2",5"-dichlorophenylthio)actamido]-3-cephem-4-carboxylic acid, sodium salt] | – | –
2 | – | 5.2 | CC(=O)OCC1=C(C(=O)O)N2C(=O)C(NC(=O)CSc3cccc(Cl)c3)C2SC1 (centres unmarked) [7-m-Chlorophenylthioacetamidocephalosporanic acid, potassium salt] | – | –
0.8 | – | > 1 | O=C(CSc1cc(Cl)ccc1Cl)NC1C(=O)N2C(C(=O)O)=C(CSc3nnc(-c4ccccc4)o3)CSC12 (centres unmarked) [3-[5'-phenyl-1',3',4'-oxadiazol-2'-ylthiomethyl]-7-[2'-(2"-5"-dichlorophenylthio)acetamido]-3-cephem-4-carboxylic acid, dicyclohexylamine salt] | – | –
